In experiment [1] the target is T1, Porcine pancreatic elastase (Sus scrofa, UniProt P00772).
T1 construct: gene CELA1; commercial native enzyme from pancreas (Sigma-Aldrich); mature enzyme
Put plainly: N-Succinyl-Ala-Ala-Ala-p-nitroanilide hydrolysis, absorbance […] nm. Format: biochemical. As to conditions: read-out: IC50 [μg/mL] / Elastase Inhibition (converted).

Experiment [2] deals with T2, Collagenase from Clostridium histolyticum.
T2 construct: gene colG; commercial native enzyme preparation (Sigma-Aldrich); mixture of ColG and ColH not resolved
Put plainly: FALGPA hydrolysis, absorbance […] nm. The following applies: FALGPA 1 mM; Tricine 0.05 M pH 7.5, 0.4 M NaCl, 0.01 M CaCl2; 29 °C; 10 min preincubation; positive control. In kind it is biochemical, Hathewaya histolytica.

One compound from article PMC7464698, “Phenolic Composition and Skin-related Properties of the Aerial Parts Extract of Different Hemerocallis Cultivars” (Antioxidants, 2020) can be followed below.

Structures are written as SMILES. ≈ marks a conversion by molar mass, not a printed value.

T1 sequence (P00772 27-266): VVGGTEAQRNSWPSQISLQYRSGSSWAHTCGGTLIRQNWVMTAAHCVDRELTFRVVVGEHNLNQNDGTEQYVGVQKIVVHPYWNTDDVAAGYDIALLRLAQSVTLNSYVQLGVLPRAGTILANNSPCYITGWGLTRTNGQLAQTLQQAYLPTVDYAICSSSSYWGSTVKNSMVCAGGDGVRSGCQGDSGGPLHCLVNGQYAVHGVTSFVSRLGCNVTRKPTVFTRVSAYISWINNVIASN

For the compound `O=C(O[C@@H]1Cc2c(O)cc(O)cc2O[C@@H]1c1cc(O)c(O)c(O)c1)c1cc(O)c(O)c(O)c1` [EGCG], the IC50 in experiment [1] was 136 µM. In addition, in experiment [2], the “IC50 [μg/mL] / Collagenase Inhibition” value was 34.9 ± 0.4 µg/mL (≈ 76.1 µM).
